Reference: paper PMC6008465 (British Journal of Cancer, 2018)

System: patients with advanced solid tumours
Experiment: Phase 1 Part A (dose escalation): safety, DLT, MTD
Format: in vivo, human
Method: The primary objectives of this phase 1 study were to evaluate the safety, tolerability, and MTD of once-weekly (Schedule I) and twice-weekly (Schedule II) dosing. Secondary objectives included evaluation of the PK profile of E6201. […] Toxicity was managed by dose interruption, reduction, and/or discontinuation. Only Cycle 1 adverse events (AEs) were evaluable as DLTs. Based on AEs reported at 480 mg/m^2 and 400 mg/m^2, the protocol was amended to include up to 6 additional toxicity-evaluable patients at 320 mg/m^2, to confirm this as the MTD. All ongoing patients could continue at 320 mg/m^2, regardless of initial starting dose.
Safety was assessed by monitoring AEs, serious AEs (SAEs), laboratory parameters, vital signs, 12-lead electrocardiograms (ECGs), Eastern Cooperative Oncology Group performance status, and symptom-directed physical and neurologic examination findings. AEs were graded by investigators based on the National Cancer Institute Common Terminology Criteria for Adverse Events, version 3.[16]

CCNc1cc(O)c2c(c1)/C=C/C[C@H](O)[C@H](O)C(=O)/C=C\[C@@H](C)[C@H](C)OC2=O [E6201, (3S,4R,5Z,8S,9S,11E)-14-(ethylamino)-8,9,16-trihydroxy-3,4-dimethyl-3,4,9,19-tetrahydro-1H-2-benzoxacyclotetradecine-1,7 (8H)-dione]
two: Patients with grade 1/2 eye disorders (Part A (160 and 320 mg/m^2 groups))
36%: Nausea TEAE, patients (Part A overall, 9 patients)
0 n (%): Abdominal pain TEAE incidence, G≥3 (Part A, 20 mg/m^2 (n=4)) | Constipation TEAE incidence, G≥3 (Part A, 20 mg/m^2 (n=4)) | Decreased appetite TEAE incidence, G≥3 (Part A, 20 mg/m^2 (n=4)) | Fatigue TEAE incidence, G≥3 (Part A, 20 mg/m^2 (n=4)) | Hypokalemia TEAE incidence, G≥3 (Part A, 20 mg/m^2 (n=4)) | Nausea TEAE incidence, G≥3 (Part A, 20 mg/m^2 (n=4)) | Peripheral edema TEAE incidence, G≥3 (Part A, 20 mg/m^2 (n=4)) | Vomiting TEAE incidence, All grades (Part A, 20 mg/m^2 (n=4)) | Vomiting TEAE incidence, G≥3 (Part A, 20 mg/m^2 (n=4)) | Abdominal pain TEAE incidence, G≥3 (Part A, 40 mg/m^2 (n=3)) | Constipation TEAE incidence, All grades (Part A, 40 mg/m^2 (n=3)) | Constipation TEAE incidence, G≥3 (Part A, 40 mg/m^2 (n=3)) | Decreased appetite TEAE incidence, All grades (Part A, 40 mg/m^2 (n=3)) | Decreased appetite TEAE incidence, G≥3 (Part A, 40 mg/m^2 (n=3)) | Fatigue TEAE incidence, All grades (Part A, 40 mg/m^2 (n=3)) | Fatigue TEAE incidence, G≥3 (Part A, 40 mg/m^2 (n=3)) | Hypokalemia TEAE incidence, G≥3 (Part A, 40 mg/m^2 (n=3)) | Nausea TEAE incidence, G≥3 (Part A, 40 mg/m^2 (n=3)) | Peripheral edema TEAE incidence, All grades (Part A, 40 mg/m^2 (n=3)) | Peripheral edema TEAE incidence, G≥3 (Part A, 40 mg/m^2 (n=3)) | Vomiting TEAE incidence, G≥3 (Part A, 40 mg/m^2 (n=3)) | Abdominal pain TEAE incidence, All grades (Part A, 80 mg/m^2 (n=3)) | Abdominal pain TEAE incidence, G≥3 (Part A, 80 mg/m^2 (n=3)) | Constipation TEAE incidence, G≥3 (Part A, 80 mg/m^2 (n=3)) | Decreased appetite TEAE incidence, All grades (Part A, 80 mg/m^2 (n=3)) | Decreased appetite TEAE incidence, G≥3 (Part A, 80 mg/m^2 (n=3)) | Fatigue TEAE incidence, All grades (Part A, 80 mg/m^2 (n=3)) | Fatigue TEAE incidence, G≥3 (Part A, 80 mg/m^2 (n=3)) | Hypokalemia TEAE incidence, All grades (Part A, 80 mg/m^2 (n=3)) | Hypokalemia TEAE incidence, G≥3 (Part A, 80 mg/m^2 (n=3)) | Nausea TEAE incidence, All grades (Part A, 80 mg/m^2 (n=3)) | Nausea TEAE incidence, G≥3 (Part A, 80 mg/m^2 (n=3)) | Peripheral edema TEAE incidence, G≥3 (Part A, 80 mg/m^2 (n=3)) | Vomiting TEAE incidence, All grades (Part A, 80 mg/m^2 (n=3)) | Vomiting TEAE incidence, G≥3 (Part A, 80 mg/m^2 (n=3)) | Constipation TEAE incidence, G≥3 (Part A, 160 mg/m^2 (n=3)) | Decreased appetite TEAE incidence, G≥3 (Part A, 160 mg/m^2 (n=3)) | Fatigue TEAE incidence, G≥3 (Part A, 160 mg/m^2 (n=3)) | Hypokalemia TEAE incidence, All grades (Part A, 160 mg/m^2 (n=3)) | Hypokalemia TEAE incidence, G≥3 (Part A, 160 mg/m^2 (n=3)) | Nausea TEAE incidence, G≥3 (Part A, 160 mg/m^2 (n=3)) | Peripheral edema TEAE incidence, G≥3 (Part A, 160 mg/m^2 (n=3)) | Vomiting TEAE incidence, G≥3 (Part A, 160 mg/m^2 (n=3)) | Constipation TEAE incidence, G≥3 (Part A, 320 mg/m^2 (n=7))
1 (25.0) n (%): Abdominal pain TEAE incidence, All grades (Part A, 20 mg/m^2 (n=4)) | Constipation TEAE incidence, All grades (Part A, 20 mg/m^2 (n=4)) | Decreased appetite TEAE incidence, All grades (Part A, 20 mg/m^2 (n=4)) | Fatigue TEAE incidence, All grades (Part A, 20 mg/m^2 (n=4)) | Hypokalemia TEAE incidence, All grades (Part A, 20 mg/m^2 (n=4)) | Nausea TEAE incidence, All grades (Part A, 20 mg/m^2 (n=4)) | Peripheral edema TEAE incidence, All grades (Part A, 20 mg/m^2 (n=4))
2 (28.6) n (%): Abdominal pain TEAE incidence, All grades (Part A, 320 mg/m^2 (n=7)) | Constipation TEAE incidence, All grades (Part A, 320 mg/m^2 (n=7)) | Decreased appetite TEAE incidence, All grades (Part A, 320 mg/m^2 (n=7))
1 (14.3) n (%): Abdominal pain TEAE incidence, G≥3 (Part A, 320 mg/m^2 (n=7)) | Decreased appetite TEAE incidence, G≥3 (Part A, 320 mg/m^2 (n=7))
1 (33.3) n (%): Abdominal pain TEAE incidence, All grades (Part A, 40 mg/m^2 (n=3)) | Hypokalemia TEAE incidence, All grades (Part A, 40 mg/m^2 (n=3)) | Nausea TEAE incidence, All grades (Part A, 40 mg/m^2 (n=3)) | Vomiting TEAE incidence, All grades (Part A, 40 mg/m^2 (n=3)) | Constipation TEAE incidence, All grades (Part A, 80 mg/m^2 (n=3)) | Peripheral edema TEAE incidence, All grades (Part A, 80 mg/m^2 (n=3)) | Abdominal pain TEAE incidence, All grades (Part A, 160 mg/m^2 (n=3)) | Abdominal pain TEAE incidence, G≥3 (Part A, 160 mg/m^2 (n=3)) | Constipation TEAE incidence, All grades (Part A, 160 mg/m^2 (n=3)) | Decreased appetite TEAE incidence, All grades (Part A, 160 mg/m^2 (n=3)) | Fatigue TEAE incidence, All grades (Part A, 160 mg/m^2 (n=3)) | Nausea TEAE incidence, All grades (Part A, 160 mg/m^2 (n=3)) | Peripheral edema TEAE incidence, All grades (Part A, 160 mg/m^2 (n=3)) | Vomiting TEAE incidence, All grades (Part A, 160 mg/m^2 (n=3))
3 (42.9) n (%): Fatigue TEAE incidence, All grades (Part A, 320 mg/m^2 (n=7))
Two: Patients who discontinued treatment due to SAEs (Part A)
